Results: patent US20240383913A1, “THIOPHENE RING COMPOUND, PREPARATION METHOD THEREFOR AND APPLICATION THEREOF” (CENTER FOR EXCELLENCE IN MOLECULAR CELL SCIENCE, CHINESE …, priority 2021, published 2024)
Read-outs that look alike come from different tables or passages of the source.

Key:
dopamine D2 receptors [1] = target: T1, dopamine D2 receptors (Homo sapiens (Human), UniProt P14416); assay: Affinity for dopamine D2 receptors, radioligand competition with [3H]-Methylspiperone; type: binding; conditions: 293T membrane transiently expressing D2
dopamine D2 receptors [2] = target: T1, dopamine D2 receptors; assay: Dopamine D2 receptor Gαi1 BRET (G protein trimer dissociation); type: cell-based; conditions: for Emax: read-out: Gαi1 BRET (Emax %);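 on all read-outs here: transfected cells co-expressing D2 receptor, Gαi1-Rluc, Gβ3 and Gγ9-GFP, BRET with coelenterazine 400a at 5 µM read as G protein trimer dissociation, graded drug concentrations in duplicate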
dopamine D2 receptors [3] = target: T1, dopamine D2 receptors; assay: Dopamine D2 receptor β-arrestin2 BRET (recruitment); type: cell-based; conditions: for Emax: read-out: β-arrestin2 BRET (Emax %);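 on all read-outs here: cells co-expressing Rluc-fused D2 receptor, GRK2 and GFP2-fused β-arrestin2, BRET read with coelenterazine 400a after adding drug over a concentration series, in duplicate wells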
5-HT2A receptor [4] = target: T2, 5-HT2A receptor (Homo sapiens (Human), UniProt P28223); assay: Affinity for 5-HT2A receptors, radioligand competition with [3H]-ketanserin; type: binding; conditions: 293T membrane transiently expressing 5-HT2A
5-HT2A receptor [5] = target: T2, 5-HT2A receptor; assay: 5-HT2A receptor Gαq BRET (G protein trimer dissociation); type: cell-based; conditions: for Emax: read-out: Gαq BRET (Emax %);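 on all read-outs here: cells transfected with 5-HT2A receptor, Gαq-Rluc, Gβ3 and Gγ9-GFP, BRET read with coelenterazine 400a (5 µM) across a compound dilution series in duplicate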
Procedure: (§1) To examine the downstream G protein signaling pathway mediated by 5-HT2A receptors, on the first day, a 6 cm culture dish was used for transfection with 1 μg of 5-HT2A receptors, 1 μg of Gαq containing C-terminal seaweed luciferase (Gαq-Rluc), 1 μg of Gβ3, 1 μg of Gγ9 containing C-terminal green fluorescent protein (Gγ9-GFP), and 16 μL of PEI. At the same time, in order to examine the downstream β-arrestin2 signaling pathway mediated by 5-HT2A receptors, on the first day, a 6 cm culture dish was used for transfection with 500 μg of 5-HT2A receptors containing C-terminal seaweed luciferase (5-HT2A-Rluc), 500 μg of G protein-coupled receptor kinase 2 (GRK2), 2500 μg of β-arrestin2 containing N-terminal green fluorescent protein (GFP2-ARRB2), and 14 μL of PEI. The next day, the confluent cells of a 6 cm culture dish were digested and reseeded into a 96-well plate with 100 μL of culture medium was added to each well. On the third day, the drugs were added for test. The 96-well plate was taken out from the cell incubator to decant the culture medium, 40 μL of the substrate coelenterazine 400a (final concentration of 5 μM) was added to each well, and then 20 μL of different drugs were added sequentially from left to right to ensure that the final concentration of the drug decreased gradually from bottom to top, with two replicates per treatment. Finally, the prepared samples were loaded on machine for test. The machine readout value reflected the recruitment of β-arrestin2 to the membrane or the dissociation of G protein trimer. The former indicated the degree of activation of the β-arrestin2 signaling pathway downstream of the 5-HT2A receptors, and the latter indicated the degree of activation of the G protein signaling pathway downstream of the 5-HT2A receptors.

5-HT2A receptor [6] = target: T2, 5-HT2A receptor; assay: 5-HT2A receptor β-arrestin2 BRET (recruitment); type: cell-based;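 further: cells co-expressing Rluc-tagged 5-HT2A receptor, GRK2 and GFP2-tagged β-arrestin2, read by BRET with coelenterazine 400a (5 µM) across graded drug concentrations in duplicate, signal reflecting β-arrestin2 membrane recruitment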
Procedure: as §1

5-HT1A receptor [7] = target: T3, 5-HT1A receptor (Homo sapiens (Human), UniProt P08908); assay: Affinity for 5-HT1A receptors, radioligand competition with [3H]-LSD; type: binding;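 further: membranes from cells transiently transfected with 5-HT1A receptor, bound [3H]-LSD displaced by compound at 10^-9 to 10^-5 M, 2 h incubation at room temperature in the dark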
Procedure: (§2) The affinity of the compounds of the present disclosure for the 5-HTIA receptors was determined by the method of radioligand competition experiment. In the first step, a cell membrane component containing specific 5-HTIA receptor was prepared. A 10 cm culture dish was used for transfection with 10 ng of the 5-HTIA receptor and 40 μL of PEI. After 48 hours, the 10 cm culture dish was taken out from the cell incubator and the cultured cells had expressed the 5-HTIA receptor. A vacuum pump was used to suck off the culture medium, 3 mL of lysis buffer was added to each culture dish, and the cells were placed in a 4° C. cold room for 10 minutes. After the cells were detached, the cells were transferred to a 15 mL centrifuge tube and centrifuged at 1500 rpm for 5 minutes at 4° C., and the supernatant was discarded. The cell pellet was transferred to a tissue homogenizer, and 3 mL of lysis buffer was added and fully ground until the cells were broken. Then, cell suspension was equally aliquoted into several EP tubes, centrifuged at 12000 rpm for 5 minutes at 4° C., and the supernatant was discarded. The precipitate was the cell membrane component containing the 5-HT1A receptor. […] First, a standard binding buffer was added to the cell membrane component containing the 5-HT1A receptor, and the cell membrane was disrupted and resuspended with an electric tissue homogenizer. 30 μL of membrane protein suspension was added to each well of a 96-well plate. Then, 30 μL of different drugs were added to the 96-well plate sequentially from bottom to top to ensure that the final drug concentrations were 10^−5 M, 10^−6 M, 10^−7 M, 10^−8 M, 10^−9 M, and 0 M, with two replicates per treatment. Next, 30 μL of [3H]-LSD was added to each well of the 96-well plate. The plate was incubated for 2 hours at room temperature in the dark. Detection was conducted. The machine readout value reflected the amount of [3H]-LSD bound on the membrane, and after further data processing, the affinity Ki values of different compounds for the 5-HTIA receptor were obtained. To examine the downstream G protein signaling pathway mediated by 5-HTIA receptors, on the first day, a 6 cm culture dish was used for transfection with 1 μg of 5-HTIA receptors, 1 μg of Gαi1 containing C-terminal seaweed luciferase (Gαi1-Rluc), 1 μg of Gβ3, 1 μg of Gγ9 containing C-terminal green fluorescent protein (Gγ9-GFP), and 16 μL of PEI. The next day, the confluent cells of a 6 cm culture dish were digested and reseeded into a 96-well plate with 100 μL of culture medium was added to each well. On the third day, the drugs were added for test. The 96-well plate was taken out from the cell incubator to decant the culture medium, 40 μL of the substrate coelenterazine 400a (final concentration of 5 μM) was added to each well, and then 20 μL of different drugs were added sequentially from left to right to ensure that the final concentration of the drug decreased gradually from bottom to top, with two replicates per treatment. Finally, the prepared samples were loaded on machine for test. The machine readout value reflected the dissociation of G protein trimer, and thereby indicated the degree of activation of the G protein signaling pathway downstream of the 5-HTIA receptors.

5-HT1A receptor [8] = target: T3, 5-HT1A receptor; assay: 5-HT1A receptor Gαi1 BRET (G protein trimer dissociation); type: cell-based;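 further: cells transiently co-expressing 5-HT1A receptor, luciferase-tagged Gαi1, Gβ3 and GFP-tagged Gγ9, seeded in 96-well plates for BRET measurement of G protein signaling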
Procedure: as §2

[9] = D2 receptor, G protein pathway, read-out: Gαi1 BRET EC50
[10] = D2 receptor, β-arrestin2 pathway, read-out: β-arrestin2 BRET EC50
[11] = 5-HT2A receptor, G protein pathway, read-out: Gαq BRET EC50
[12] = 5-HT2A receptor, β-arrestin2 pathway
[13] = 5-HT2A receptor, β-arrestin2 pathway, read-out: β-arrestin2 BRET EC50
[14] = 293T membrane transiently expressing 5-HT1A, [3H]-LSD, read-out: 5-HT1A affinity Ki
[15] = 5-HT1A receptor, G protein pathway
[16] = 5-HT1A receptor, G protein pathway, read-out: Gαi1 BRET EC50

T2 sequence (P28223 whole entry): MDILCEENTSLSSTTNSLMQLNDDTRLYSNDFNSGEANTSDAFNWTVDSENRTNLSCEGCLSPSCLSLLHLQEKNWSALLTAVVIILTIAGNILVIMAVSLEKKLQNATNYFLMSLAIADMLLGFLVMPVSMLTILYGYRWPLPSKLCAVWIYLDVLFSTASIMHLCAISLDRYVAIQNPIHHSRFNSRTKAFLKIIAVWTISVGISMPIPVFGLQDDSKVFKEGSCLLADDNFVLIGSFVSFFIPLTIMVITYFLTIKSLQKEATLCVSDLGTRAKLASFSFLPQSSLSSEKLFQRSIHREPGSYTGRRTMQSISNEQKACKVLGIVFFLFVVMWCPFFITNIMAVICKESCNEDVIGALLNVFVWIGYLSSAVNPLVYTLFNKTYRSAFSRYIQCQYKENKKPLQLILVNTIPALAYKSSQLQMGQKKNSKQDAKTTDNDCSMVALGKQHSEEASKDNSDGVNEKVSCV
T3 sequence (P08908 whole entry): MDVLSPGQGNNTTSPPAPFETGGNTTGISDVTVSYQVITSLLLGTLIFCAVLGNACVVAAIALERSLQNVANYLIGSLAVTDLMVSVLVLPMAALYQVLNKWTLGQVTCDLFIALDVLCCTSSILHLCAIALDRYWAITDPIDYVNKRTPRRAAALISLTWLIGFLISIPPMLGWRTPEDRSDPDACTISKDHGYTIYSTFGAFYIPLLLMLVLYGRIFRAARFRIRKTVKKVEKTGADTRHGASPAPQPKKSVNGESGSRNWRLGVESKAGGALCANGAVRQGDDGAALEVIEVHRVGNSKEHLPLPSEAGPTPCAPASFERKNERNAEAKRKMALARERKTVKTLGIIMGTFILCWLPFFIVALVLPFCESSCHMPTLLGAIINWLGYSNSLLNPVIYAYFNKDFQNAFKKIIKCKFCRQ
T1 sequence (P14416 whole entry): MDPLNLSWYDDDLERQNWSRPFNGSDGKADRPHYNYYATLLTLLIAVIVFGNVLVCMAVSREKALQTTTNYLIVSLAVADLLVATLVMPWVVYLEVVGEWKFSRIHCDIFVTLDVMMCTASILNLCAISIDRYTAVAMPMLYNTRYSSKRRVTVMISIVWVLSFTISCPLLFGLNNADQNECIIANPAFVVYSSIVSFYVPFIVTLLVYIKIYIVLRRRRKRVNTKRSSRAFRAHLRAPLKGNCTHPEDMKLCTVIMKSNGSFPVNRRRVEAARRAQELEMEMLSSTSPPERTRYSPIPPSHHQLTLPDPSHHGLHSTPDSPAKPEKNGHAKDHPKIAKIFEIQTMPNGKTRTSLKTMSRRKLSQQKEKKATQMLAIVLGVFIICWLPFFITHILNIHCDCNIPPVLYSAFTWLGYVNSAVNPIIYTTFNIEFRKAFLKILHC

Row | Compound | Ki (dopamine D2 receptors [1]) | EC50 (dopamine D2 receptors [2]; [9]) | Emax (dopamine D2 receptors [2]) | EC50 (dopamine D2 receptors [3]; [10]) | Emax (dopamine D2 receptors [3]) | Ki (5-HT2A receptor [4]) | EC50 (5-HT2A receptor [5]; [11]) | Emax (5-HT2A receptor [5]) | Emax (5-HT2A receptor [6]; [12]) | EC50 (5-HT2A receptor [6]; [13]) | Ki (5-HT1A receptor [7]; [14]) | Emax (5-HT1A receptor [8]; [15]) | EC50 (5-HT1A receptor [8]; [16]) | other results
1 | O=C1c2ccccc2CN1CCCCN1CCN2c3cccc4scc(c34)CC2C1 (stereo not drawn) [Compound I-22, 2-(4-(6a,7,9,10-Tetrahydropyrazino[1,2-a]Thieno [4,3,2-De]Quinolin-8 (6H)-Yl)Butyl) Isoindolin-1-One] | 490 nM | 161 nM | 37% | 328 nM | 24.8% | 1200 nM | 966 nM | 13.8% | 64.6% | 3470 nM | 350 nM | 87% | 1470 nM | –
2 | COc1cc2c(cc1OC)C(=O)N(CCCCN1CCN3c4cccc5scc(c45)CC3C1)C2 (stereo not drawn) [Compound I-23, 5,6-Dimethoxy-2-(4-(6a,7,9,10-Tetrahydropyrazino[1,2-a]Thieno [4,3,2-De]Quinolin-8 (6H)-Yl)Butyl) Isoindolin-1-One] | 750 nM | 282 nM | 61.9% | 130 nM | 38.5% | 160 nM | 245 nM | 18.9% | 138% | 8060 nM | 4130 nM | 71% | 6700 nM | –
3 | CN(C)C(=O)N[C@H]1CC[C@H](CCN2CCN3c4cccc5scc(c45)CC3C2)CC1 (stereo partly drawn) [Compound I-27, 1,1-Dimethyl-3-(4-(2-(6a, 7,9,10-Tetrahydropyrazino[1,2-a]Thieno [4,3,2-De]Quinolin-8 (6H)-Yl)Ethyl) Trans-Cyclohexyl) Urea] | 80 nM | 3.87 nM | 73.6% | 10.2 nM | 52.1% | 210 nM | 158 nM | 9.57% | 34.7% | 13.8 nM | 160 nM | 64% | 164 nM | –
4 | Fc1ccc(CCN2CCN3c4cccc5scc(c45)CC3C2)cc1 (stereo not drawn) [Compound I-5, 8-(4-Fluorophenylethyl)-6,6a,7,8,9,10-Hexahydropyrazino[1,2-a]Thieno [4,3,2-De]Quinoline] | 7500 nM | 193 nM | 53.8% | 370 nM | 27.2% | 920 nM | – | 50% | 27.3% | – | 280 nM | 91% | 3130 nM | EC50 (5-HT2A receptor [5]; read-out: Gαq BRET EC50): 1100 nM; EC50 (5-HT2A receptor [6]; read-out: β-arrestin2 BRET EC50): 946 nM
5 | Fc1ccc(-c2cncc(CN3CCN4c5cccc6scc(c56)CC4C3)c2)cc1 (stereo not drawn) [Compound I-8, 8-((5-(4-Fluorophenyl)Pyridin-3-Yl)Methyl)-6,6a,7,8,9,10-Hexahydropyrazino[1,2-a]Thieno [4,3,2-De]Quinoline] | 440 nM | 531 nM | 15.9% | 371 nM | 14.1% | 1460 nM | 4540 nM | 21% | 84.2% | 1290 nM | 9850 nM | 53% | 16300 nM | –
6 | O=C(N[C@H]1CC[C@H](CCN2CCN3c4cccc5scc(c45)CC3C2)CC1)N1CCCCC1 (stereo partly drawn) [Compound I-29, N-(4-(2-(6a,7,9,10-Tetrahydropyrazino[1,2-a]Thieno [4,3,2-De]Quinolin-8 (6H)-Yl)Ethyl) Trans-Cyclohexyl) Piperidine-1-Carboxamide] | 180 nM | 32.2 nM | 45.2% | 102 nM | 31.8% | 450 nM | 299 nM | 8.61% | 21.8% | 30.2 nM | 120 nM | 62% | 1480 nM | –
7 | O=c1ccc2ccc(OCCCN3CCN4c5cccc6scc(c56)CC4C3)cc2[nH]1 (stereo not drawn) [Compound I-17, 7-(3-(6a,7,9,10-Tetrahydropyrazino[1,2-a]Thieno [4,3,2-De]Quinolin-8 (6H)-Yl) Propoxy) Quinolin-2 (1H)-One] | 290 nM | 18.5 nM | 81.6% | 91.6 nM | 66.8% | 750 nM | 279 nM | 23.4% | 92.2% | 1270 nM | 340 nM | 86% | 754 nM | –
8 | OCCN1CCN2c3cccc4scc(c34)CC2C1 (stereo not drawn) [Compound I-3, 2-(6a,7,9,10-Tetrahydropyrazino[1,2-a]Thieno [4,3,2-De]Quinolin-8 (6H)-Yl) Ethan-1-Ol] | > 10000 nM | – | 22.5% | – | 14.2% | 4130 nM | – | 43.6% | 90% | – | – | 62% | – | EC50 (dopamine D2 receptors [2]): 40.7 nM; EC50 (dopamine D2 receptors [3]): 189 nM; EC50 (5-HT2A receptor [5]): 1520 nM; EC50 (5-HT2A receptor [6]): 638 nM; Ki (5-HT1A receptor [7]): 4410 nM; EC50 (5-HT1A receptor [8]): 24200 nM
9 | CCCN1CCN2c3cccc4scc(c34)CC2C1 (stereo not drawn) [Compound I-2, 8-Propyl-6,6a,7,8,9,10-Hexahydropyrazino[1,2-a]Thieno [4,3,2-De]Quinoline] | 380 nM | 747 nM | 12.1% | 19.3 nM | 27.6% | 710 nM | 2.41 nM | 7.6% | 66.3% | 298 nM | 3420 nM | 72% | 7720 nM | –
